# In patent US9849099B2, “Antimicrobial compounds, compositions and methods of use thereof” (WISCONSIN ALUMNI RESEARCH FOUNDATION, priority 2014, dated 2017):
# Entries after “also recorded” stand apart in the source; their conditions may differ. Like-named read-outs stand apart in the source and are kept apart here.
# What was measured:
# Type in all cases: cell-based
# Acinetobacter baumannii = experiment: MIC micro-dilution
# Protocol: (§1) Luria-Bertani (LB) media (10 g/L tryptone, 10 g/L NaCl, 5 g/L yeast extract, pH 7.0) was used to grow all bacterial strains, except Streptococcus pyogenes. Streptococcus pyogenes was grown in Mueller-Hinton broth containing 5% (v/v) sheep blood. All bacterial cultures were grown at 37° C. All the E. coli strains were grown while shaking at 200 rpm, while clinical pathogens were incubated without shaking.
# (§2) The MIC of all the strains was determined in LB media except Streptococcus pyogenes, which was grown in Mueller-Hinton media containing 5% (v/v) sheep blood. The micro-dilution method was utilized in 96-well clear flat-bottom plates (100 μL/well) according to the CLSI guidelines. All strains were grown at 37° C. for 16-18 hours in presence of various concentrations of compound. The MIC was determined by a visual inspection and experiments were performed in triplicate.
# E. coli BW25113 ΔtolC = experiment: MIC micro-dilution; conditions: Escherichia coli, LB media, 37° C., 16-18 hours
# Protocol: as §1, §2
# E. coli BW25113 = experiment: MIC micro-dilution; conditions: Escherichia coli, LB media, 37° C., 16-18 hours
# Protocol: as §1, §2
# Edwardsiella tarda = experiment: MIC micro-dilution
# Protocol: as §1, §2
# Enterobacter aerogenes = experiment: MIC micro-dilution; conditions: Klebsiella aerogenes
# Protocol: as §1, §2
# Klebsiella pneumoniae = experiment: MIC micro-dilution
# Protocol: as §1, §2
# Morganella morganii = experiment: MIC micro-dilution
# Protocol: as §1, §2
# Pseudomonas aeruginosa = experiment: MIC micro-dilution
# Protocol: as §1, §2
# Salmonella typhimurium = experiment: MIC micro-dilution; conditions: Salmonella enterica
# Protocol: as §1, §2
# Shigella boydii = experiment: MIC micro-dilution; conditions: LB media, 37° C., 16-18 hours, read-out: MIC
# Protocol: as §1, §2
# Staphylococcus aureus = experiment: MIC micro-dilution
# Protocol: as §1, §2
# Vibrio cholerae = experiment: MIC micro-dilution
# Protocol: as §1, §2
# [1] = tested on: broad panel of human pathogens; experiment: MIC against the panel of pathogens; conditions: panel of pathogens
# Protocol: as §1, §2
# Bacillus subtilis 168 = experiment: MIC micro-dilution
# Protocol: as §1, §2
# [2] = LB media, 37° C., 16-18 hours, read-out: MIC
# [3] = Enterobacter aerogenes, LB media, 37° C., 16-18 hours, read-out: MIC
# [4] = Salmonella typhimurium, LB media, 37° C., 16-18 hours, read-out: MIC
# [5] = Bacillus subtilis 168, LB media, 37° C., 16-18 hours, read-out: MIC
structure (smiles),measurement,setting,value
CC(C)CCCC(C)CCOc1ccc2[nH]cc(CCN)c2c1 (centres unmarked) [Compound 10],MIC,Acinetobacter baumannii; [2],13 µg/mL
same,MIC,E. coli BW25113 ΔtolC,3.2 µg/mL
same,MIC,"E. coli BW25113; E. coli BW25113, read-out: MIC",13 µg/mL
same,MIC,Edwardsiella tarda; [2],25 µg/mL
same,MIC,Enterobacter aerogenes; [3],13 µg/mL
same,MIC,Klebsiella pneumoniae; [2],13 µg/mL
same,MIC,Morganella morganii; [2],> 101 µg/mL
same,MIC,Pseudomonas aeruginosa; [2],25 µg/mL
same,MIC,Salmonella typhimurium; [4],6.3 µg/mL
same,MIC,Shigella boydii,6.3 µg/mL
same,MIC,Staphylococcus aureus; [2],6.3 µg/mL
same,MIC,Vibrio cholerae,6.3 µg/mL
same,MICs compared with Compound 1,[1],either the same or 2× different from Compound 1; also recorded: either the same or 2-fold different from 1
NCCc1c[nH]c2ccccc12 [Compound 4],MIC,E. coli BW25113 ΔtolC,> 61 µg/mL
same,MIC,"E. coli BW25113; BW25113, E. coli BW25113",> 61 µg/mL
Cc1[nH]c2ccc(O)cc2c1CCN [Compound 5],MIC,E. coli BW25113 ΔtolC,> 61 µg/mL
same,MIC,"E. coli BW25113; BW25113, E. coli BW25113",> 61 µg/mL
COc1ccc2[nH]cc(CCN)c2c1 [Compound 3],MIC,E. coli BW25113 ΔtolC,> 56 µg/mL
same,MIC,"E. coli BW25113; BW25113, E. coli BW25113",> 56 µg/mL
CCCCCCCCCOc1cccc(N)c1 [Compound 19],MIC,Bacillus subtilis 168; [5],40 µg/mL
same,MIC,E. coli BW25113 ΔtolC,10 µg/mL
same,MIC,"E. coli BW25113; E. coli BW25113, read-out: MIC",> 40 µg/mL
CCCCCCCCCOc1ccc2[nH]cc(CC[N+](C)(C)C)c2c1 [Compound 15],MIC,Acinetobacter baumannii,52 µg/mL
same,MIC,"Bacillus subtilis 168; Bacillus subtilis, 168",52 µg/mL
same,MIC,E. coli BW25113 ΔtolC,6.5 µg/mL
same,MIC,"E. coli BW25113; BW25113, E. coli BW25113",52 µg/mL
same,MIC,Edwardsiella tarda,26 µg/mL
same,MIC,Enterobacter aerogenes,52 µg/mL
same,MIC,Klebsiella pneumoniae,26 µg/mL
same,MIC,Morganella morganii,> 104 µg/mL
same,MIC,Pseudomonas aeruginosa,52 µg/mL
same,MIC,Salmonella typhimurium; TYPHIMURIUM,26 µg/mL
same,MIC,Shigella boydii,26 µg/mL
same,MIC,Staphylococcus aureus,6.5 µg/mL
same,MIC,Vibrio cholerae,> 104 µg/mL
CCCCCCOc1ccc2[nH]cc(CCN)c2c1 [Compound 8],MIC,Acinetobacter baumannii,42 µg/mL
same,MIC,E. coli BW25113 ΔtolC,42 µg/mL
same,MIC,"E. coli BW25113; BW25113, E. coli BW25113",42 µg/mL
same,MIC,Edwardsiella tarda,42 µg/mL
same,MIC,Enterobacter aerogenes,42 µg/mL
same,MIC,Klebsiella pneumoniae,42 µg/mL
same,MIC,Morganella morganii,> 83 µg/mL
same,MIC,Pseudomonas aeruginosa,> 83 µg/mL
same,MIC,Salmonella typhimurium; TYPHIMURIUM,42 µg/mL
same,MIC,Shigella boydii,42 µg/mL
same,MIC,Staphylococcus aureus,42 µg/mL
same,MIC,Vibrio cholerae,42 µg/mL
CCCCCCCCCOc1ccc(CCN)cc1 [Compound 17],MIC,"Bacillus subtilis 168; Bacillus subtilis, 168",0.66 µg/mL
same,MIC,E. coli BW25113 ΔtolC,1.3 µg/mL
same,MIC,"E. coli BW25113; BW25113, E. coli BW25113",5.3 µg/mL
CCCCOc1ccc2[nH]cc(CCN)c2c1 [Compound 7],MIC,Acinetobacter baumannii,> 74 µg/mL
same,MIC,E. coli BW25113 ΔtolC,> 74 µg/mL
same,MIC,"E. coli BW25113; BW25113, E. coli BW25113",> 74 µg/mL
same,MIC,Edwardsiella tarda,> 74 µg/mL
same,MIC,Enterobacter aerogenes,> 74 µg/mL
same,MIC,Klebsiella pneumoniae,> 74 µg/mL
same,MIC,Morganella morganii,> 74 µg/mL
same,MIC,Pseudomonas aeruginosa,> 74 µg/mL
same,MIC,Salmonella typhimurium; TYPHIMURIUM,> 74 µg/mL
same,MIC,Shigella boydii,> 74 µg/mL
same,MIC,Staphylococcus aureus,> 74 µg/mL
same,MIC,Vibrio cholerae,> 74 µg/mL
CCCCCCCCCCCCCCCOc1ccc2[nH]cc(CCN)c2c1 [Compound 12],MIC,Acinetobacter baumannii,> 124 µg/mL
same,MIC,E. coli BW25113 ΔtolC,> 124 µg/mL
same,MIC,"E. coli BW25113; BW25113, E. coli BW25113",> 124 µg/mL
same,MIC,Edwardsiella tarda,> 124 µg/mL
same,MIC,Enterobacter aerogenes,> 124 µg/mL
same,MIC,Klebsiella pneumoniae,> 124 µg/mL
same,MIC,Morganella morganii,> 124 µg/mL
same,MIC,Pseudomonas aeruginosa,> 124 µg/mL
same,MIC,Salmonella typhimurium; TYPHIMURIUM,> 124 µg/mL
same,MIC,Shigella boydii,> 124 µg/mL
same,MIC,Staphylococcus aureus,> 124 µg/mL
same,MIC,Vibrio cholerae,> 124 µg/mL
CCCCCCCCCOc1cccc(CCN)c1 [Compound 16],MIC,Acinetobacter baumannii,5.3 µg/mL
same,MIC,"Bacillus subtilis 168; Bacillus subtilis, 168",0.66 µg/mL
same,MIC,E. coli BW25113 ΔtolC,2.6 µg/mL
same,MIC,"E. coli BW25113; BW25113, E. coli BW25113",5.3 µg/mL
same,MIC,Edwardsiella tarda,5.3 µg/mL
same,MIC,Enterobacter aerogenes,5.3 µg/mL
same,MIC,Klebsiella pneumoniae,5.3 µg/mL
same,MIC,Morganella morganii,11 µg/mL
same,MIC,Pseudomonas aeruginosa,21 µg/mL
same,MIC,Salmonella typhimurium; TYPHIMURIUM,5.3 µg/mL
same,MIC,Shigella boydii,5.3 µg/mL
same,MIC,Staphylococcus aureus,5.3 µg/mL
same,MIC,Vibrio cholerae,5.3 µg/mL
CCCCCCCCCOc1cccc(CN)c1 [Compound 18],MIC,Bacillus subtilis 168; [5],4.7 µg/mL
same,MIC,E. coli BW25113 ΔtolC,4.7 µg/mL
same,MIC,"E. coli BW25113; E. coli BW25113, read-out: MIC",9.4 µg/mL
NCCc1c[nH]c2ccc(O)cc12 [Compound 2],MIC,E. coli BW25113 ΔtolC,> 51 µg/mL
same,MIC,"E. coli BW25113; BW25113, E. coli BW25113",> 51 µg/mL
CCCCCCCCCOc1ccc2[nH]cc(CCNC(=O)OC(C)C)c2c1 [Compound 13],MIC,Acinetobacter baumannii; [2],> 130 µg/mL
same,MIC,Bacillus subtilis 168; [5],> 130 µg/mL
same,MIC,E. coli BW25113 ΔtolC,> 130 µg/mL
same,MIC,"E. coli BW25113; E. coli BW25113, read-out: MIC",> 130 µg/mL
same,MIC,Edwardsiella tarda; [2],> 130 µg/mL
same,MIC,Enterobacter aerogenes; [3],> 130 µg/mL
same,MIC,Klebsiella pneumoniae; [2],> 130 µg/mL
same,MIC,Morganella morganii; [2],> 130 µg/mL
same,MIC,Pseudomonas aeruginosa; [2],> 130 µg/mL
same,MIC,Salmonella typhimurium; [4],> 130 µg/mL
same,MIC,Shigella boydii,> 130 µg/mL
same,MIC,Staphylococcus aureus; [2],> 130 µg/mL
same,MIC,Vibrio cholerae,> 130 µg/mL
CCCCCCCCCOc1ccc2[nH]ccc2c1 [Compound 14],MIC,Acinetobacter baumannii; [2],> 83 µg/mL
same,MIC,Bacillus subtilis 168; [5],> 83 µg/mL
same,MIC,E. coli BW25113 ΔtolC,> 83 µg/mL
same,MIC,"E. coli BW25113; E. coli BW25113, read-out: MIC",> 83 µg/mL
same,MIC,Edwardsiella tarda; [2],> 83 µg/mL
same,MIC,Enterobacter aerogenes; [3],> 83 µg/mL
same,MIC,Klebsiella pneumoniae; [2],> 83 µg/mL
same,MIC,Morganella morganii; [2],> 83 µg/mL
same,MIC,Pseudomonas aeruginosa; [2],> 83 µg/mL
same,MIC,Salmonella typhimurium; [4],> 83 µg/mL
same,MIC,Shigella boydii,> 83 µg/mL
same,MIC,Staphylococcus aureus; [2],> 83 µg/mL
same,MIC,Vibrio cholerae,> 83 µg/mL
COc1ccc2c(CCN)c[nH]c2c1 [Compound 6],MIC,E. coli BW25113 ΔtolC,> 61 µg/mL
same,MIC,"E. coli BW25113; BW25113, E. coli BW25113",> 61 µg/mL
CCCCCCCCCCOc1ccc2[nH]cc(CCN)c2c1 [Compound 9],MIC,Acinetobacter baumannii; [2],6.3 µg/mL
same,MIC,E. coli BW25113 ΔtolC,3.2 µg/mL
same,MIC,"E. coli BW25113; E. coli BW25113, read-out: MIC",6.3 µg/mL
same,MIC,Edwardsiella tarda; [2],25 µg/mL
same,MIC,Enterobacter aerogenes; [3],13 µg/mL
same,MIC,Klebsiella pneumoniae; [2],6.3 µg/mL
same,MIC,Morganella morganii; [2],> 101 µg/mL
same,MIC,Pseudomonas aeruginosa; [2],> 101 µg/mL
same,MIC,Salmonella typhimurium; [4],6.3 µg/mL
same,MIC,Shigella boydii,3.2 µg/mL
same,MIC,Staphylococcus aureus; [2],6.3 µg/mL
same,MIC,Vibrio cholerae,6.3 µg/mL
same,MICs compared with Compound 1,[1],either the same or 2-fold different from 1
NCCc1c[nH]c2ccc(OCCCCCCCc3ccccc3)cc12 [Compound 11],MIC,Acinetobacter baumannii; [2],7 µg/mL
same,MIC,E. coli BW25113 ΔtolC,1.8 µg/mL
same,MIC,"E. coli BW25113; E. coli BW25113, read-out: MIC",14 µg/mL
same,MIC,Edwardsiella tarda; [2],28 µg/mL
same,MIC,Enterobacter aerogenes; [3],14 µg/mL
same,MIC,Klebsiella pneumoniae; [2],7 µg/mL
same,MIC,Morganella morganii; [2],> 112 µg/mL
same,MIC,Pseudomonas aeruginosa; [2],56 µg/mL
same,MIC,Salmonella typhimurium; [4],7 µg/mL
same,MIC,Shigella boydii,7 µg/mL
same,MIC,Staphylococcus aureus; [2],3.5 µg/mL
same,MIC,Vibrio cholerae,7 µg/mL
same,MICs compared with Compound 1,[1],either the same or 2× different from Compound 1; also recorded: either the same or 2-fold different from 1
